Laboratory results: patent US7473679B2, “Treatments employing neuronal exocytosis-inhibiting peptides” (Lipotec, S.A., priority 1999, dated 2009)

These substances were tested on chromaffin cells permeabilized with digitonin (assay: Inhibition of the release of catecholamines induced by calcium in permeabilized chromaffin cells). Settings: peptide at 1 mM, stimulated with calcium.
Type: cell-based, bovine
Experimental: The neuronal-exocytosis (neurosecretion) inhibiting capabilities of the peptides of the invention became evident through a test that evaluates the strength of said peptides in inhibiting the release of catecholamines induced by calcium in chromaffin cells permeabilized with a detergent [see Example 1.2.1]. Briefly, the chromaffin cell cultures are incubated with epinephrine and norepinephrine containing tritium, are permeabilized with digitonin, and stimulated with calcium, and the amount of radioactivity released by the cells to the extracellular medium, which is a reflection of the exocytosis of said tritium-containing catecholamines, is measured.
This test was performed to verify the neuronal exocytosis-inhibiting capabilities of the peptides synthesized in Example 1.1. In this test, the strength of said peptides is evaluated in inhibiting the release of catecholamines (norepinephrine and epinephrine) induced by calcium in chromaffin cells (obtained from suprarenal bovine glands) permeabilized with the detergent digitonin, in accordance with the method described by Gutiérrez el al. (1995 and 1997).
Briefly, the chromaffin cell cultures are incubated with [^3H]-epinephrine and [^3H]-norepinephrine, are permeabilized with 20 μM digitonin, and stimulated with calcium (10 μM), in the presence of the peptides to be tested (separate or mixed), and the amount of radioactivity released by the cells to the extracellular medium, which is a reflection of the exocytosis of [^3H]-epinephrine and [^3H]-norepinephrine, is measured.

Row | Substance | inhibition of the release of catecholamines (epinephrine and norepinephrine)
1 | SEQ. ID. No. 2: hexapeptide from the amino end of protein SNAP-25 (EEMQRR) | approximately 20%
2 | SEQ. ID. No. 3: peptide with 13 amino acids from the amino end of protein SNAP-25 (ELEEMQRRADQLA) | approximately 35%
3 | SEQ. ID. No. 5: peptide from the carboxyl end of SNAP-25 [SEQ. ID. No. 4], (COOH) peptide (RIMEKADSNKTRIDEANQ) | approximately 40%
4 | SEQ. ID. No. 6: peptide from the carboxyl end of SNAP-25 [SEQ. ID. No. 4], (COOH) peptide (ADSNKTRIDEANQRATKML) | approximately 40%
